Test results as given in US20240239801A1, “PYRIMIDO[5,4,D]PYRIMIDINE COMPOUNDS, COMPOSITIONS COMPRISING THEM AND USES THEREOF” (Université de Montréal, priority 2021, published 2024).

What was measured:
Test in all cases: Phospho-ERK inhibition, AlphaLISA SureFire Ultra p-ERK 1/2
Format in all cases: cell-based, human
Mewo pERK = conditions: Table D-2; for Mewo pERK, value in parentheses, % inhibition: % Ymin of pERK IC50 curve
Method in brief: (§1)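 IC50 derived by four-parameter fitting of % inhibition, with DMSO as 0% and 1 μM trametinib subtracted as background. Signal is AlphaLISA p-ERK1/2 (Thr202/Tyr204) in lysates of overnight-seeded cells (RPMI-1640, 5% FBS) treated 1 h with ten concentrations from 30 or 10 μM to 0.33 nM, 0.5% DMSO.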

NCIH2087 pERK = conditions: Table D-2
Method in brief: as §1

NCI-H358 pERK = conditions: Table D-2; for NCI-H358 pERK, value in parentheses, % inhibition: % Ymin of pERK IC50 curve
Method in brief: as §1

NCIH1755 pERK = conditions: Table D-2; for Ymin of pERK inhibition curve (%): % Ymin of pERK IC50 curve
Method in brief: as §1

Calu6 pERK = conditions: Table D-2; for Calu6 pERK, value in parentheses, % inhibition: % Ymin of pERK IC50 curve
Method in brief: as §1

HepG2 pERK = conditions: Table D-1; for HepG2 pERK, value in parentheses, % inhibition: % Ymin of pERK IC50 curve
Method in brief: as §1

NCI-H2122 pERK = conditions: Table D-2; for NCI-H2122 pERK, value in parentheses, % inhibition: % Ymin of pERK IC50 curve
Method in brief: as §1

Lovo pERK = conditions: Table D-2; for pERK curve Ymin (%): % Ymin of pERK IC50 curve
Method in brief: as §1

IC50 (Mewo pERK) [nM] | IC50 (NCIH2087 pERK) [nM] | Ymin of pERK IC50 curve (%) (NCIH2087 pERK) | IC50 (NCI-H358 pERK) [nM] | IC50 (NCIH1755 pERK) [nM] | IC50 (Calu6 pERK) [nM] | IC50 (HepG2 pERK) [nM] | IC50 (NCI-H2122 pERK) [nM] | IC50 (Lovo pERK) [nM] | IC50 (Mewo pERK; Homo sapiens, MeWo) [nM] | IC50 (NCIH2087 pERK; Homo sapiens, NCI-H2087) [nM] | IC50 (NCI-H358 pERK; Homo sapiens, NCI-H358) [nM] | IC50 (NCIH1755 pERK; Homo sapiens, NCI-H1755) [nM] | Compound | Mewo pERK, value in parentheses, % inhibition (Mewo pERK) | NCI-H358 pERK, value in parentheses, % inhibition (NCI-H358 pERK) | Ymin of pERK inhibition curve (%) (NCIH1755 pERK) | Calu6 pERK, value in parentheses, % inhibition (Calu6 pERK) | HepG2 pERK, value in parentheses, % inhibition (HepG2 pERK) | NCI-H2122 pERK, value in parentheses, % inhibition (NCI-H2122 pERK) | pERK curve Ymin (%) (Lovo pERK) | further results
< 30 | < 30 | (−7) % | 30 to 300 | < 30 | 30 to 300 | 30 to 300 | 30 to 300 | 30 to 300 |  |  |  |  | COc1ccc(S(=O)(=O)Nc2ccc(F)c(Nc3ncnc4cnc(-n5cnc6c(N)cccc65)nc34)c2F)c(C)c1Cl [Example 112] | (12) % | (−8) % | (12) % | (1) % | (−10) % | (−15) % | (−1) % | 
 |  | (2) % |  |  |  |  |  |  | 30 to 300 | 30 to 300 | > 300 | 30 to 300 | Cc1c(F)cccc1S(=O)(=O)Nc1ccc(F)c(Nc2ncnc3cnc(-n4cnc5c(-c6cccnc6)cccc54)nc23)c1F [Example 114] | (−12) % | (−4) % | (−5) % | (8) % | (14) % | (0) % | (4) % | IC50 (Calu6 pERK; Homo sapiens, Calu-6): 30 to 300 nM; IC50 (HepG2 pERK; Homo sapiens, HepG2): 30 to 300 nM; IC50 (NCI-H2122 pERK; Homo sapiens, NCI-H2122): 30 to 300 nM; IC50 (Lovo pERK; Homo sapiens, LoVo): < 30 nM

More lines, now with the values behind:

Compound | IC50 (Mewo pERK) [nM] | IC50 (NCIH2087 pERK) [nM] | Ymin of pERK IC50 curve (%) (NCIH2087 pERK) | IC50 (NCI-H358 pERK) [nM] | IC50 (NCIH1755 pERK) [nM] | IC50 (Calu6 pERK) [nM] | IC50 (HepG2 pERK) [nM] | IC50 (NCI-H2122 pERK) [nM] | IC50 (Lovo pERK) [nM] | IC50 (Mewo pERK; Homo sapiens, MeWo) [nM] | IC50 (NCIH2087 pERK; Homo sapiens, NCI-H2087) [nM] | IC50 (NCI-H358 pERK; Homo sapiens, NCI-H358) [nM] | IC50 (NCIH1755 pERK; Homo sapiens, NCI-H1755) [nM] | Mewo pERK, value in parentheses, % inhibition (Mewo pERK) | NCI-H358 pERK, value in parentheses, % inhibition (NCI-H358 pERK) | Ymin of pERK inhibition curve (%) (NCIH1755 pERK) | Calu6 pERK, value in parentheses, % inhibition (Calu6 pERK) | HepG2 pERK, value in parentheses, % inhibition (HepG2 pERK) | NCI-H2122 pERK, value in parentheses, % inhibition (NCI-H2122 pERK) | pERK curve Ymin (%) (Lovo pERK) | further results
Cc1ccc2c(Nc3cccc(Cl)c3F)nccc2c1NC(=O)c1csc2c(N)ncnc12 [Belvarafenib, reference compound] |  |  |  |  |  |  |  |  |  | 30 to 300 | < 30 | 30 to 300 | 30 to 300 | (−116) % | (−122) % | (−79) % | (−39) % | (−36) % | (−9) % | (−12) % | IC50 (Calu6 pERK; Homo sapiens, Calu-6): 30 to 300 nM; IC50 (HepG2 pERK; Homo sapiens, HepG2): 30 to 300 nM; IC50 (NCI-H2122 pERK; Homo sapiens, NCI-H2122): 30 to 300 nM; IC50 (Lovo pERK; Homo sapiens, LoVo): < 30 nM
Cc1c(F)cccc1S(=O)(=O)Nc1ccc(F)c(Nc2ncnc3cnc(-n4cc(C(=O)N(C)Cc5ccncc5)c5ccccc54)nc23)c1F [Example 98] | 30 to 300 | < 30 | (6) % | 30 to 300 | < 30 | 30 to 300 | < 30 | 30 to 300 | 30 to 300 |  |  |  |  | (9) % | (20) % | (9) % | (5) % | (27) % | (26) % | (27) % | 
O=S(=O)(Nc1ccc(F)c(Nc2ncnc3cnc(-n4cnc5c(N6CCC7(CCCO7)CC6)cccc54)nc23)c1F)c1cccc(Cl)c1Cl [Example 129] | 30 to 300 | < 30 | (3) % | 30 to 300 | < 30 | 30 to 300 | 30 to 300 | > 300 | 30 to 300 |  |  |  |  | (−5) % | (−3) % | (−2) % | (−1) % | (−2) % | (−14) % | (−2) % | 
